In US11517556B2, “Composition for BKCa channel activation” (GWANGJU INSTITUTE OF SCIENCE AND TECHNOLOGY, priority 2016, dated 2022):

Legend:
[1] = target: T1, rat BKCa channel α-subunit (rSlo1) (Rattus norvegicus, UniProt Q62976); assay: Macroscopic current patch-clamp recording, Xenopus oocyte excised patches; format: cell-based
T1 construct: expressed in transfected cells; host or cells: Xenopus laevis oocytes injected with cRNA (vector pNBC1.0)
Description: (§1) Xenopus laevis oocytes heterologously expressing a BKCa channel α-subunit (Slo1) were used for electrophysiological recording. Subcloning and functional expression of the rat BKCa channel α-subunit using the oocyte expression vector pNBC1.0 has been reported (Ha et al., 2000). Sequence information of Slo1 used in the present disclosure is published in GenBank as expression number AF135265. Plasmid DNA was linearized using Notl restriction enzyme, and complementary RNA (cRNA) was synthesized using T7 RNA polymerase in the presence of nucleoside triphosphate and cap analog m7G(5′)ppp(5′)G from a linear form of DNA using mMessage Machine (Ambion).
(§2) Oocytes from stages V to VI were surgically removed from ovarian lobes of anesthetized X. laevis (Xenopus I, Dexter, Mich.). The removed oocytes were transferred to a Ca^2+-free oocyte ringer's (OR) culture medium (86 mM NaCl, 1.5 mM KCl, 2 mM MgCl2 and 10 mM HEPES, pH 7.6). The oocytes were cultured in Ca^2+-free OR medium containing 3 mg/ml collagenase (Worthington Biochemicals) for 1 hour and 30 minutes to 2 hours. This removed the follicular cell layer of the oocyte. Then, the oocytes were widely washed with Ca^2+-free OR culture medium and ND-96 medium (96 mM NaCl, 2 mM KCl, 1.8 mM CaCl2, 1 mM MgCl2, 5 mM HEPES, and 50 µg/ml gentamycin, pH 7.6). The washed oocytes were stored at 18° C. in ND-96 medium. Before oocyte was used, the oocyte was stabilized for at least one day. After the stabilization, approximately 50 ng of synthesized cRNA in 50 nl of nuclease-free water was injected into each oocyte for macroscopic current recording, and approximately 1 ng of synthesized cRNA in 50 nl of nuclease-free water was injected into each oocyte for single-channel recording using a micro-dispenser (Drummond Scientific, Broomall, Pa.). The cRNA-injected oocytes were cultured in ND-96 medium for 1 to 3 days at 18 degree C. Immediately prior to the patch-clamp experiment, the oocyte's vitelline membrane was manually removed with fine forceps.
[…] Patch pipettes were prepared from borosilicate and glass (WPI, Sarasota, Fla.). The pipettes were fire-polished with a resistance of 2 to 4 MΩ for patch recording. For single-channel recording, the patch pipettes were fire-polished with 4 to 8 MΩ resistors. To reduce electrical noise, the pipettes were coated with beeswax. Using an Axopatch 200B amplifier (Axon Instruments), the channel current was amplified. Then, the current was low-pass filtered at 1 kHz using a four-pole Bessel filter. Then, the current was digitized at a rate of 10 points/ms using a Digidata 1200A (Axon Instruments).
A single BKCa channel was readily activated by a membrane potential simply transferred at 100 mV at a high concentration of intracellular Ca^2+. For the single-channel assay, the switching between the closed and open conditions was determined by setting a potency at a half of a unitary current amplitude. To determine the single-channel conductance of the expressed channel, the average amplitude of the channel current was obtained from the histograms fitted with Gaussian distributions. An average current for a membrane-pass voltage is shown. A slope-conductance values were obtained from linear regression. The macroscopic current of the expressed BKCa channel was activated by a voltage-clamp pulse delivered from a holding potential of −100 mV at 10 mV increment to a membrane potential of typically −80 to 200 mV, A dwell-time of recorded open and close events for the single BKCa channel was analyzed using a linear histogram method. The dwell-time distribution was fitted into a single index using simplex-least-squares fitting methods (Clampfit, Axon Instruments). A peak in the dwell-time distribution was located at a time-constant of an exponential component.
To prevent activation of endogenous calcium-activated chloride channels, solutions for single and macroscopic channel recording contained gluconate as a non-permeant negative ion. […]

Wistar Kyoto rat (WKY) = assay: Voiding behavior of Wistar Kyoto rat (WKY); format: in vivo; conditions: up to 5 mg/kg
Description: The voiding frequency was monitored for 3 hours. FIG. 9B represents a total number of voidings. Each symbol or bar represents average±SEM of 5 (WKY) or 7 (SHR) animals (*** P<0.001).
The cumulative voiding frequency is shown in FIG. 9A for WKY and SHR orally administered with kurarinone. The administration of kurarinone may allow distinct differences in voiding frequency to be evident between WKY and SHR. […] In the WKY control rat, the decrease of the voiding frequency was not observed.

[2] = target: T1, rat BKCa channel α-subunit (rSlo1); assay: Single-channel patch-clamp recording, outside-out patches of Xenopus oocytes; format: cell-based; conditions: 5 μM
Description: as §1
as §2, with “forceps. […]” for “forceps.”
A single BKCa channel was readily activated by a membrane potential simply transferred at 100 mV at a high concentration of intracellular Ca^2+. For the single-channel assay, the switching between the closed and open conditions was determined by setting a potency at a half of a unitary current amplitude. […] The macroscopic current of the expressed BKCa channel was activated by a voltage-clamp pulse delivered from a holding potential of −100 mV at 10 mV increment to a membrane potential of typically −80 to 200 mV, A dwell-time of recorded open and close events for the single BKCa channel was analyzed using a linear histogram method. […]

[3] = 5 μM, outside-out, 3 μM intracellular Ca2+, double-exponential fit
[4] = after removal of 5 μM kurarinone, outside-out

T1 sequence (Q62976 whole entry): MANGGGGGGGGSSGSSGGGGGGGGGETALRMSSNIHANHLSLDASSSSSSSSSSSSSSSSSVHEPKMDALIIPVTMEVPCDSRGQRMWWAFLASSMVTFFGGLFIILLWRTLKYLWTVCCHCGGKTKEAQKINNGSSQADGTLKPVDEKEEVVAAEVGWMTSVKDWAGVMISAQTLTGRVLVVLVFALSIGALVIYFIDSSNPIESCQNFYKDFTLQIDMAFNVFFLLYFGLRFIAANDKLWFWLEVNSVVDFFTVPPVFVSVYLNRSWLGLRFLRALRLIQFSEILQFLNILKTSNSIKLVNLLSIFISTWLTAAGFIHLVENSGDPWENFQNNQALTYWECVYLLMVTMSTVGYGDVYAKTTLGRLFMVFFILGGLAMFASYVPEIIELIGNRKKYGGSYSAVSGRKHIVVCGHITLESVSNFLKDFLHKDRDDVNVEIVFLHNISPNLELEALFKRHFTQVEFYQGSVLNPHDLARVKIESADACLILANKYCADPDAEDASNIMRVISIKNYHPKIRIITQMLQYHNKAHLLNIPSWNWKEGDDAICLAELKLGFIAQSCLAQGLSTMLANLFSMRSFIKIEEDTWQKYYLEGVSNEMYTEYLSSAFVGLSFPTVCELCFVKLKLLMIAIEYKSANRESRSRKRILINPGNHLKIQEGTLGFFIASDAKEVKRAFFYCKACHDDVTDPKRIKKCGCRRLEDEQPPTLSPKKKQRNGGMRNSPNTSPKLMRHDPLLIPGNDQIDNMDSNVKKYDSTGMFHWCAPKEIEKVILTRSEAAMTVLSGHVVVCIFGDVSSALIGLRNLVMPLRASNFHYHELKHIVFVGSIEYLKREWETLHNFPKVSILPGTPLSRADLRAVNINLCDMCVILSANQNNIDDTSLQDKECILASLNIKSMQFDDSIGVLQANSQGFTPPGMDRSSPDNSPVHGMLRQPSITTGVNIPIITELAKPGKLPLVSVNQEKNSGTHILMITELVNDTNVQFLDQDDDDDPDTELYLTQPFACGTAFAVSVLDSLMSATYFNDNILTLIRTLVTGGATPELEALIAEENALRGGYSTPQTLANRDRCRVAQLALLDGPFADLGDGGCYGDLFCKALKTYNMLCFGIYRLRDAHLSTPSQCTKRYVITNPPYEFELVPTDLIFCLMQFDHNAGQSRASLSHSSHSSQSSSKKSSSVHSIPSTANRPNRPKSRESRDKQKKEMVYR

Q: `C=C(C)[C@H](CC=C(C)C)Cc1c(O)cc(OC)c2c1O[C@H](c1ccc(O)cc1O)CC2=O` [kurarinone] was tested. Which “activation time-constant (τactivation)” value ([1]; 0, 5, 10, 20 μM) did it give?
A: not significantly increased

Q: What about the effect on tail-current ([1]; 5 μM on the extracellular surface, outside-out patch, 3 μM intracellular Ca2+) of the same molecule?
A: strongly potentiates the tail-current

Q: What about the “association time-constant, fast phase (τfast) of potentiation” value [1, 3] of the same molecule?
A: 1.47 ± 0.34 s

Q: And the “association time-constant, low-speed phase (τslow) of potentiation” value [1, 3]?
A: 64.9 ± 8.8 s

Q: And the “maximum conductance relative to vehicle control” value ([1]; 20 μM)?
A: 1.8 times

Q: And the “shift of V1/2 in the negative direction” value ([1]; 20 μM vs vehicle)?
A: approximately 80 mV

Q: And the “half-active voltage (V1/2) of G-V relationship” value ([1]; 20 μM, 3 μM [Ca2+]i, vehicle 107.4±2.2 mV)?
A: 27.7±3.0 mV

Q: What about the “maximum conductance (G/Gmax)” value ([1]; 20 μM, normalized to vehicle maximum) of the same molecule?
A: 1.35

Q: And the “dissociation time-constant, fast phase of de-potentiation” value [1, 4]?
A: 2.78 ± 0.95 s

Q: What about the “dissociation time-constant, slow phase of de-potentiation” value [1, 4] of the same molecule?
A: 90.06 ± 12.21 s

Q: And the “change in BKCa channel current on treatment from the inside of the cell” value ([1]; excised inside-out patch recording)?
A: no significant change

Q: And the deactivation rate ([1]; increasing concentrations up to 20 μM, voltage-dependent)?
A: dramatically decreased

Q: And the “effect on voiding frequency” value (Wistar Kyoto rat (WKY))?
A: not affected

Q: What about the “half-activation voltage (V1/2) of single-channel open-probability” value ([2]; 10 μM intracellular Ca2+, control 68.7±3.7 mV) of the same molecule?
A: 43.7±2.1 mV

Q: What about the single-channel conductance ([2]; 10 μM intracellular Ca2+, control 221.1±16.4) of the same molecule?
A: 238.3±8.7 pS

Q: And the “average opening-time of single channel” value ([2]; 50 mV, 2.98+/−0.34 ms in absence)?
A: 5.77 ± 0.90 ms

Q: And the “average closing time of single channel” value ([2]; 50 mV, 3.69±0.80 ms in absence)?
A: 3.60 ± 4.1 ms
